Assay results reported in the NIST ThermoML archive (doi:10.1016/j.jct.2016.05.001).

Conditions: 101.33 kPa, Crystal; for molar entropy: Small (less than 1 g) adiabatic calorimetry; for mass density: X-ray diffraction

Nc1nc2ncc(CNc3ccc(C(=O)N[C@@H](CCC(=O)O)C(=O)O)cc3)nc2c(=O)[nH]1.O.O [folic acid dihydrate]
Conditions | mass density [kg/m3] | molar entropy [J/K/mol]
4 K | – | 0.0255
5 K | – | 0.0623
6 K | – | 0.1291
7 K | – | 0.2371
8 K | – | 0.3983
9 K | – | 0.6346
10 K | – | 0.962
15 K | – | 3.956
20 K | – | 8.733
25 K | – | 15.36
30 K | – | 23.55
35 K | – | 32.93
40 K | – | 43.15
45 K | – | 53.9
50 K | – | 65
60 K | – | 87.81
70 K | – | 111.2
80 K | – | 134.6
90 K | – | 157.6
100 K | – | 180.2
110 K | – | 202.6
120 K | – | 224.6
130 K | – | 246.2
140 K | – | 267.7
150 K | 1556 | 288.9
160 K | – | 309.9
170 K | – | 330.6
175 K | 1554 | –
180 K | – | 351.2
190 K | – | 371.6
200 K | 1552 | 391.9
210 K | – | 412
220 K | – | 432
225 K | 1550 | –
230 K | – | 451.9
240 K | – | 471.7
250 K | 1549 | 491.4
260 K | – | 511
270 K | – | 530.5
273.15 K | – | 536.6
275 K | 1546 | –
280 K | – | 549.9
290 K | – | 569.3
298.15 K | – | 585
300 K | 1543 | 588.6
310 K | – | 607.8
320 K | – | 627
325 K | 1542 | –
330 K | – | 646.1
333 K | – | 651.9
350 K | 1540 | –
375 K | 1537 | –
